# Reference: US9492471B2, “Methods of treating a disease or disorder associated with Bruton'S Tyrosine Kinase” (Celgene Avilomics Research, Inc., priority 2013, dated 2016)
# Read-outs that look alike come from different tables or passages of the source.
# Experiments:
# Experiment in all cases: HotSpot kinase profiling
# Type in all cases: biochemical
# CDK2/cyclin A1 = molecular target: T1, CDK2/cyclin A1 (Homo sapiens, UniProt P24941)
# T1 construct: purchased Reaction Biology Corp
# Summary of the method: (§1)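 P81 filtration radiometric readout; 2 h incubation at room temperature; 0.1% phosphoric acid wash; DMSO negative control; % inhibition, mean of replicate runs.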
# CDK3/cyclin E = molecular target: T2, CDK3/cyclin E (Homo sapiens, UniProt Q00526)
# T2 construct: purchased Reaction Biology Corp
# Summary of the method: as §1
# CDK4/cyclin D1 = molecular target: T3, CDK4/cyclin D1 (Homo sapiens, UniProt P11802)
# T3 construct: purchased Reaction Biology Corp
# Summary of the method: as §1
# FER = molecular target: T4, FER (Homo sapiens, UniProt P16591)
# T4 construct: purchased Reaction Biology Corp
# Summary of the method: as §1
# KHS/MAP4K5 = molecular target: T5, KHS/MAP4K5 (Homo sapiens, UniProt Q9Y4K4)
# T5 construct: purchased Reaction Biology Corp
# Summary of the method: as §1
# MKK4 = molecular target: T6, MKK4 (Homo sapiens, UniProt P45985)
# T6 construct: purchased Reaction Biology Corp
# T6 sequence (P45985 1-399): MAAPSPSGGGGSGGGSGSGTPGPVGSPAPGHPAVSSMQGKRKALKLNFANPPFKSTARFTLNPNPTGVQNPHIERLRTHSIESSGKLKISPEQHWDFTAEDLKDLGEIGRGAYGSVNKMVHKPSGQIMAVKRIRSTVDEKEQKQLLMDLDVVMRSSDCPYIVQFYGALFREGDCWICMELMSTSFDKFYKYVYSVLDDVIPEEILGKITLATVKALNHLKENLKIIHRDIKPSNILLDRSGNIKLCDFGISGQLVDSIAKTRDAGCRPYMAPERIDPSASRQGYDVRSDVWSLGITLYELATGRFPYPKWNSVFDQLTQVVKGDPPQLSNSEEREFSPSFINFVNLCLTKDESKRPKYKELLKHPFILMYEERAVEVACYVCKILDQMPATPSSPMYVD
# Summary of the method: as §1
# PKCzeta = molecular target: T7, PKCzeta (Homo sapiens, UniProt Q05513)
# T7 construct: purchased Reaction Biology Corp
# T7 sequence (Q05513 1-592): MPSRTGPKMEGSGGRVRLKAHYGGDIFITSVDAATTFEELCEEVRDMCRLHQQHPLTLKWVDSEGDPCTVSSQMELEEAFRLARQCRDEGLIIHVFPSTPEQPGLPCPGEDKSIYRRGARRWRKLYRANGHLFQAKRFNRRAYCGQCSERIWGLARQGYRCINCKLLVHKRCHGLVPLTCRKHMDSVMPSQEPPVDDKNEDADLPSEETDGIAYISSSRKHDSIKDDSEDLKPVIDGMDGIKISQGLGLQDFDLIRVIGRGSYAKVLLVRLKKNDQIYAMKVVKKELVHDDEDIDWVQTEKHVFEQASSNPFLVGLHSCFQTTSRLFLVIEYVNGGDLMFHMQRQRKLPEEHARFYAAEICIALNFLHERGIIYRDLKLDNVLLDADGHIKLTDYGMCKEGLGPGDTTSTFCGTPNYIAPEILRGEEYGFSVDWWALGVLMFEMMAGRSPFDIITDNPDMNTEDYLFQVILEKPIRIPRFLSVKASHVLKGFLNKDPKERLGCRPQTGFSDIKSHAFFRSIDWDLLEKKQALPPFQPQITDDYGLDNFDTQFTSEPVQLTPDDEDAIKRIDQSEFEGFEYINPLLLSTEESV
# Summary of the method: as §1
# STK22D/TSSK1 = molecular target: T8, STK22D/TSSK1 (Homo sapiens, UniProt Q9BXA7)
# T8 construct: purchased Reaction Biology Corp
# T8 sequence (Q9BXA7 1-367): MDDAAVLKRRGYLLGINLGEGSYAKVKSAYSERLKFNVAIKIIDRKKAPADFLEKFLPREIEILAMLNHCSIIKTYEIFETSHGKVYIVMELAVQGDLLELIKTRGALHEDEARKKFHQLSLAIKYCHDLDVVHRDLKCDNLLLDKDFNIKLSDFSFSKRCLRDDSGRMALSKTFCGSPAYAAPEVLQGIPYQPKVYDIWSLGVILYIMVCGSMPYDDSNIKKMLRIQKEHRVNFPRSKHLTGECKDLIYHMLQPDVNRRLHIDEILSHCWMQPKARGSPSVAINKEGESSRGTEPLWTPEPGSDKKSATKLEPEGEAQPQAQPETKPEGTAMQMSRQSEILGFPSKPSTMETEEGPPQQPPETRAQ
# Summary of the method: as §1
# [1] = read-out: % Enzyme Activity (relative to DMSO controls) Run 1
# [2] = read-out: % Enzyme Activity (relative to DMSO controls) Run 2
# T5 sequence (Q9Y4K4 whole entry): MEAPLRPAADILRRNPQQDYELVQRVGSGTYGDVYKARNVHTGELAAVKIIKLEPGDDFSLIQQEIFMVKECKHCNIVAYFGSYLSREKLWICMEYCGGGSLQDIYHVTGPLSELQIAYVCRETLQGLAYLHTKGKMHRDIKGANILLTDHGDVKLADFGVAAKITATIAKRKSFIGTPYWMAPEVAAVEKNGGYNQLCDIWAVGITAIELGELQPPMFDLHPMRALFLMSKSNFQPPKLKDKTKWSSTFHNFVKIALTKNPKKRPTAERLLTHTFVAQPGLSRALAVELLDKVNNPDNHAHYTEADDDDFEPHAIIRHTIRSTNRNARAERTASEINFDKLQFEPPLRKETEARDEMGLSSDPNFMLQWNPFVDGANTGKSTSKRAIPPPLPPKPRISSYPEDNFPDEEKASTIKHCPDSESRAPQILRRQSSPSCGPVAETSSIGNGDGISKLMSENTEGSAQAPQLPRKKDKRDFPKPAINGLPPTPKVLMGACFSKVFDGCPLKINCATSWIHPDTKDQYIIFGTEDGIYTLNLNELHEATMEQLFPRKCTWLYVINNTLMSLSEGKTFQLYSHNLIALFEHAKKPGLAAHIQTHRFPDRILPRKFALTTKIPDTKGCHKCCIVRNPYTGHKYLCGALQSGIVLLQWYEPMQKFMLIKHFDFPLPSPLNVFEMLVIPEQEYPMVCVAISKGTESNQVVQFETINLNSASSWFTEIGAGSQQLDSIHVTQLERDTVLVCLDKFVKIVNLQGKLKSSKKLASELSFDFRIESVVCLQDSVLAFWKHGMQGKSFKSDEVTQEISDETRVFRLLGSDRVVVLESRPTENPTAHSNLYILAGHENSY
# T4 sequence (P16591 whole entry): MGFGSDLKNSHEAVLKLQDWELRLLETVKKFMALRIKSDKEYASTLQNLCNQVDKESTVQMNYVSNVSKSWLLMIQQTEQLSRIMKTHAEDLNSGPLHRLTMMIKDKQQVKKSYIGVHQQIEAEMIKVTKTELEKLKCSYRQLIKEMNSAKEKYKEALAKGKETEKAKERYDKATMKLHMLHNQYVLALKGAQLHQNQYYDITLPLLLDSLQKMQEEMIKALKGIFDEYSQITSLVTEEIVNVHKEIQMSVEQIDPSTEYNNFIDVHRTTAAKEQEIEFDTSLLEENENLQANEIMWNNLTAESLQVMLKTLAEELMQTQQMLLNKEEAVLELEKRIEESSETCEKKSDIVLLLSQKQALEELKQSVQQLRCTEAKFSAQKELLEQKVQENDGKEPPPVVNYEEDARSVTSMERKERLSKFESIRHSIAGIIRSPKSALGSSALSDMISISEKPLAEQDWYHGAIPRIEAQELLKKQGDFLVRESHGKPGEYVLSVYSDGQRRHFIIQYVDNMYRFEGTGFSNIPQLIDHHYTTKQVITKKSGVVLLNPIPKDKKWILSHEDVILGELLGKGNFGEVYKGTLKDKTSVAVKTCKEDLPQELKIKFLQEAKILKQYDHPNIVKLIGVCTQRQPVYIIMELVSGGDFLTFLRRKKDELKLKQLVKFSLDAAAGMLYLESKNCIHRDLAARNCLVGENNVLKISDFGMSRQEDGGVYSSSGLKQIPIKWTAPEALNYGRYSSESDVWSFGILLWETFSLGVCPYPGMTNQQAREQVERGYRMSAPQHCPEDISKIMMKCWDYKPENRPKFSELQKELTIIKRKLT
# T2 sequence (Q00526 whole entry): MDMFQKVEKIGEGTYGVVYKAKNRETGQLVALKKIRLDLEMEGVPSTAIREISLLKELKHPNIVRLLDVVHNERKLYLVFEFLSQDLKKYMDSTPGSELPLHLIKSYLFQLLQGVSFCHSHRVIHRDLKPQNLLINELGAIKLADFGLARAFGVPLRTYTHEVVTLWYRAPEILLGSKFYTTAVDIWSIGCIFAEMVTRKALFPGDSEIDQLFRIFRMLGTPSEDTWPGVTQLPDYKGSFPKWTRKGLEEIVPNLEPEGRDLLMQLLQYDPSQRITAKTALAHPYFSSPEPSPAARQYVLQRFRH
# T2 sequence (P24864 whole entry partner): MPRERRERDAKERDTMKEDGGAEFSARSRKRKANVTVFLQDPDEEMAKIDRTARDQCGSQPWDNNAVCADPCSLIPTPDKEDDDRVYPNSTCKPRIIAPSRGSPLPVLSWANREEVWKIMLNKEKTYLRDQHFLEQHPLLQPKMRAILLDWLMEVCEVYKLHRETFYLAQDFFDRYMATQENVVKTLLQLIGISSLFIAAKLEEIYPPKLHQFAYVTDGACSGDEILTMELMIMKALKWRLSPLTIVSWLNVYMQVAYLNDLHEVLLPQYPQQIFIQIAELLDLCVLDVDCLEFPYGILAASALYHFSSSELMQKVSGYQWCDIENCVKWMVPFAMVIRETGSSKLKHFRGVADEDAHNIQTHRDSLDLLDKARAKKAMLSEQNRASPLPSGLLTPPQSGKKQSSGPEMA
# T3 sequence (P11802 whole entry): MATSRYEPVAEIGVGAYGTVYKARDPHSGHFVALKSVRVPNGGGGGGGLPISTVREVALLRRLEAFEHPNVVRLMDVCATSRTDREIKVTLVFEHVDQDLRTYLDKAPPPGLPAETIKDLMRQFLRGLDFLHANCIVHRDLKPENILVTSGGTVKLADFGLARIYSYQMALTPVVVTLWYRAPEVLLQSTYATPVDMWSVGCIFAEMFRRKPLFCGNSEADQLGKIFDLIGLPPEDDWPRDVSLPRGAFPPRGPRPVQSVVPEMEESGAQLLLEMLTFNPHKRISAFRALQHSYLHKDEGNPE
# T3 sequence (P24385 whole entry partner): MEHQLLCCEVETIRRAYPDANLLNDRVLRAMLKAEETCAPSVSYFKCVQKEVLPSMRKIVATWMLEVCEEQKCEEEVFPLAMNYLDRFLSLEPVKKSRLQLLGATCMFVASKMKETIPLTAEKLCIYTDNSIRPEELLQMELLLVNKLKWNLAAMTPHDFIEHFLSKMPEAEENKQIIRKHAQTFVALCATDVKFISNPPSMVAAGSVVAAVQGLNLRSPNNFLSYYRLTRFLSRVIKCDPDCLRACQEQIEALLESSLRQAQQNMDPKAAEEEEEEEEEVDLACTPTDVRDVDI
structure (smiles),measurement,setting,value
C=CC(=O)Nc1cccc(Nc2nc(Nc3ccc(OCCOC)c(F)c3)ncc2F)c1 [Compound 2],inhibition at 3 µM,CDK2/cyclin A1,22%
same,remaining activity at 3 µM,CDK2/cyclin A1; [1],78.2%
same,remaining activity at 3 µM,CDK2/cyclin A1; [2],77.7%
same,inhibition at 3 µM,CDK3/cyclin E,22.4%
same,remaining activity at 3 µM,CDK3/cyclin E; [1],78.2%
same,remaining activity at 3 µM,CDK3/cyclin E; [2],77%
same,inhibition at 3 µM,CDK4/cyclin D1,4.07%
same,remaining activity at 3 µM,CDK4/cyclin D1; [1],95.6%
same,remaining activity at 3 µM,CDK4/cyclin D1; [2],96.3%
same,inhibition at 3 µM,FER,11.8%
same,remaining activity at 3 µM,FER; [1],88.1%
same,remaining activity at 3 µM,FER; [2],88.3%
same,inhibition at 3 µM,KHS/MAP4K5,7.15%
same,remaining activity at 3 µM,KHS/MAP4K5; [1],94.9%
same,remaining activity at 3 µM,KHS/MAP4K5; [2],90.8%
same,inhibition at 3 µM,MKK4,-16.6%
same,remaining activity at 3 µM,MKK4; [1],117%
same,remaining activity at 3 µM,MKK4; [2],116%
same,inhibition at 3 µM,PKCzeta,2.52%
same,remaining activity at 3 µM,PKCzeta; [1],99.8%
same,remaining activity at 3 µM,PKCzeta; [2],95.2%
same,inhibition at 3 µM,STK22D/TSSK1,11.1%
same,remaining activity at 3 µM,STK22D/TSSK1; [1],88%
same,remaining activity at 3 µM,STK22D/TSSK1; [2],89.7%
